# Laboratory results from patent US5843941A, “Ras farnesyl transferase inhibitors” (Genentech, Inc., priority 1994, dated 1998).
# Columns and labels:
# CAAX GG transferase = target: T1, CAAX GG transferase (Rattus norvegicus, UniProt P53610+Q04631); assay: Inhibition of CAAX GG transferase (geranylgeranyltransferase); type: biochemical
# T1 construct: partially purified CAAX GG transferase; from tissue
# Source text: FIG. 1 compares the inhibitory activity of compound 27B (denoted as BG269B in the figure) on protein prenyltransferases. […] Two other prenyltransferases, both of which transfer 20-carbon geranylgeranyl (GG) groups, have been identified in rat brain. One of thesse, CAAX GG transferase, attaches GG groups to proteins that terminate in CAAX sequences in which X is leucine.
# The conditions used to assay the inhibition of CAAX farnesyltransferase are identical to those described above for the in vitro, assay described in Example 121. In FIG. 1B the assay mixture contained, in a final volume of 50 μl, 50 mM sodium Hepes (pH 7.2), 5 mM MgC12, 5 mM DTT, 0.3 mM Nonidet P-40, 0.2% octyl β-glucoside, 1% DMSO, 0.5 μM all trans [3H]geranylgeranyl pyrophosphate (33,000 dpm/pmol; ARC, Inc.), 5 μM recombinant p21^H-rasCVLL, 6.3 μg partially purified CAAX GG transferase (see Seabra, M. C., Reiss, Y., Casey, P. J., Brown, M. S., and Goldstein, J. L. Cell 268, 4055 (1993)) and varying concentrations of the indicated inhibitor. In FIG. 1C, the assay mixture contained in a final volume of 50 μl, 50 mM sodium Hepes (pH 7.2), 5 mM MgCl2, 5 mM DTT, 0.3 mM Nonidet P-40, 0.2% octyl β-D-glucoside, 1% DMSO, 0.5 μM all trans [3H]geranylgeranyl pyrophosphate (33,000 dpm/pmol; ARC, Inc.), 2 μM recombinant Rab1A, 2 ng each of purified Components A and B of Rab GG transferase (see Seabra, M. C., Goldstein, J. L., Sudhof, T. C., and Brown, M. S. J. Biol. Chem. 267, 14497 (1992)) and varying concentrations of the indicated inhibitor.
# Each assay was carried out as described in Examples 121 and 122.
# Rab GG transferase = target: T2, Rab GG transferase (Rattus norvegicus, UniProt Q08602+Q08603); assay: Inhibition of Rab GG transferase; type: biochemical; settings: FIG. 1C; Rab1A substrate; read-out: IC0.5 Rab GG transferase
# T2 construct: purified Components A and B of Rab GG transferase; from tissue
# T2 sequence (Q08602 1-567): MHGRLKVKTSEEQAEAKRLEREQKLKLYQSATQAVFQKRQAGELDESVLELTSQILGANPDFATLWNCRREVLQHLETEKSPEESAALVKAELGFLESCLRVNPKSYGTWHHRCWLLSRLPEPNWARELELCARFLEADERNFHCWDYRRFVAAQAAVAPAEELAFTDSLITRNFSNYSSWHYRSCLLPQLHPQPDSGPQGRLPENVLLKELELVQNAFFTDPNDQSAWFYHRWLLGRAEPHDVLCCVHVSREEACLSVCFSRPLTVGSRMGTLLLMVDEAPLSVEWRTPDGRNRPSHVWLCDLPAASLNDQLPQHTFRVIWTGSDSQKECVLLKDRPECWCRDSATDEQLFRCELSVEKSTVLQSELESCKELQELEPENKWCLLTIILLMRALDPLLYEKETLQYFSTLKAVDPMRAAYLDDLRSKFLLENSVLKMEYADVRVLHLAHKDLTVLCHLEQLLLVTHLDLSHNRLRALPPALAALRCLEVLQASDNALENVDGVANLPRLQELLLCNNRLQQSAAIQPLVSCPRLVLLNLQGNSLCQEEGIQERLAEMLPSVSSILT
# T2 sequence (Q08603 1-331): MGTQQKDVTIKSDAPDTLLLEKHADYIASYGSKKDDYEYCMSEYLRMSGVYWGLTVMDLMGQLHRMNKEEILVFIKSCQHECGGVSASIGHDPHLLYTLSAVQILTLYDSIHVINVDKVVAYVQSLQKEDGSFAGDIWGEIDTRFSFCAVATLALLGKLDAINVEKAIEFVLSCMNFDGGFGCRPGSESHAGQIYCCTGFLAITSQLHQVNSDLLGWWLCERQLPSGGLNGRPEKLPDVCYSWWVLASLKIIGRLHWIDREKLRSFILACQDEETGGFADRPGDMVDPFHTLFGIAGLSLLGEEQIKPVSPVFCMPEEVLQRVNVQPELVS
# [1] = tested on: H-ras(Val12)-transformed rat-1 fibroblasts (rat 2.2 cells); assay: Changes in morphology of H-ras-transformed cells; type: cell-based; settings: 5 days
# Experimental: Compound 27A (denoted as BG269A in the figure) and compound 27B (denoted as BG269B in the figure) were added at 250 μM to test whether these compounds would induce reversion to a more normal phenotype as had been previously shown with microinjection of anti-Ras antibodies (see Feramisco, J. R. et al Nature 314, 639 (1985)). The H-ras transformed cells, denoted as rat 2.2 cells, were generated by transfection of rat-1 fibroblasts as described (see Seeburg, P. H., Colby, W. W., Capon, D. J., Goeddel, D. V., and Levinson, A. D. Nature 312,71 (1984)). Cells that overgrew the monolayer were extracted and plated onto agar to obtain a cell line displaying a fully transformed phenotype. Untransformed rat-1 fibroblasts and src-transformed rat-1 fibroblasts were also treated. The src-transformed cells were generated by co-transfection of rat-1 fibroblasts with pSV3.Neo.src, a vector containing the gene for src as well as the gene that confers G418 resistance, both under control of SV40 early promoters. G418-resistant cell clones that diplayed a transformed phenotype were used to generate the cell line. On day 0, cells were plated in monolayer culture at 3×10^3 cells per well (24-well plates) in 1 ml DMEM supplemented with 10% FCS, 100 U/ml penicillin, 10 μg/ml streptomycin, 2% DMSO, and 0.5 mM DTT with and without 200 μM inhibitor. On day 3, the cells were refed with the same medium. On day 5, the cells were photographed under contrast at a magnification of 100X. […] This change in morphology is remarkably similar to that seen following injection of anti-ras antibodies into ras-transformed cells (see Feramisco, J. R. et al Nature 314, 639 (1985)). Rat-1 fibroblasts transformed with the src oncogene also grew in a multilayered pattern (FIG. 6C), but this was not affected by compound 27A or compound 27B (FIG. 6D).
# [2] = tested on: untransformed rat-1 fibroblasts; assay: Changes in morphology of untransformed cells; type: cell-based; settings: FIG. 6E and F
# Experimental: Compound 27A (denoted as BG269A in the figure) and compound 27B (denoted as BG269B in the figure) were added at 250 μM to test whether these compounds would induce reversion to a more normal phenotype as had been previously shown with microinjection of anti-Ras antibodies (see Feramisco, J. R. et al Nature 314, 639 (1985)). The H-ras transformed cells, denoted as rat 2.2 cells, were generated by transfection of rat-1 fibroblasts as described (see Seeburg, P. H., Colby, W. W., Capon, D. J., Goeddel, D. V., and Levinson, A. D. Nature 312,71 (1984)). Cells that overgrew the monolayer were extracted and plated onto agar to obtain a cell line displaying a fully transformed phenotype. Untransformed rat-1 fibroblasts and src-transformed rat-1 fibroblasts were also treated. The src-transformed cells were generated by co-transfection of rat-1 fibroblasts with pSV3.Neo.src, a vector containing the gene for src as well as the gene that confers G418 resistance, both under control of SV40 early promoters. G418-resistant cell clones that diplayed a transformed phenotype were used to generate the cell line. On day 0, cells were plated in monolayer culture at 3×10^3 cells per well (24-well plates) in 1 ml DMEM supplemented with 10% FCS, 100 U/ml penicillin, 10 μg/ml streptomycin, 2% DMSO, and 0.5 mM DTT with and without 200 μM inhibitor. On day 3, the cells were refed with the same medium. […]
# T1 sequence (P53610 whole entry, one chain of several): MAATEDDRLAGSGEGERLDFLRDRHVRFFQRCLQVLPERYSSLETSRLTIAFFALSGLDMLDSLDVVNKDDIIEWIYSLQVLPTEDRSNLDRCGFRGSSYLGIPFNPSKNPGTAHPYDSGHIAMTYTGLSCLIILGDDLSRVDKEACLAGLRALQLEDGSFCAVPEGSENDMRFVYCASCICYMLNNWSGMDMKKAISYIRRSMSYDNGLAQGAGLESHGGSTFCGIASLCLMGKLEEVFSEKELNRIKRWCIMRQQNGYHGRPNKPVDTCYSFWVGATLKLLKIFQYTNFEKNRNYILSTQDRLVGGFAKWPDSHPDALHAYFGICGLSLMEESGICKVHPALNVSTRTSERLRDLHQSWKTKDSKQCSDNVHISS
compound,measurement,setting,value
"CSCC[C@H](NC(=O)CN1C(=O)C(N(C)C(=O)[C@@H](N)CS)N=C(c2ccccc2)c2ccccc21)C(=O)O (single isomer, unassigned) [27B]",IC50,"CAAX GG transferase; FIG. 1B, p21H-rasCVLL substrate, read-out: IC0.5 CAAX GG transferase",35 nM
same,fold higher concentration for CAAX GG transferase than for CAAX farnesyltransferase,CAAX GG transferase; selectivity vs CAAX farnesyltransferase,more than 100 fold
same,IC50,Rab GG transferase,5500 nM
same,effect on transformed phenotype (morphology),[1]; FIG. 6A/6B,reversed the transformed phenotype
same,effect on cell density,[1]; FIG. 6B,grew to lower cell density
same,effect on morphology of untransformed cells,[2],no apparent effect on the morphology of untransformed rat-1 fibroblasts
